“Also recorded” adds a separate entry of the source.
Columns and labels:
[1] = tested on: melanoma with lung metastases; assay: Case report, dog treated with oncothermia and low dose Carboplatine (Example 11); type: in vivo, Cocker spaniel; conditions: low dose Carboplatine 2 times (100 mg/m^2) + oncothermia 10 times in 2 weeks on the chest
Protocol: Case No.:11461, Cocker spaniel, 8 years, castrated male,
Diagnosis: melanoma with lung metastases. The primary tumor was situated on the right hind leg and was removed surgically. 5 months later metastases in the lung occurred, at that time we started the treatment.
Oncothermia (10 times in a 2 weeks period)
Low dose Carboplatine 2 times, (100 mg/m^2)
The site of the OTM treatment was on the chest, exactly at the line of the heart.

[2] = tested on: non small cells lung cancer; assay: Case report, patient treated with radiotherapy, oncothermia and GM-CSF (Example 13); type: in vivo, human; conditions: for Response of far-distant metastases (abscopal effect, PET scan): GM-CSF (Leukine) subcutaneously with oncothermia (and radiotherapy) of the primary tumor only; for Response of the primary (treated) tumor: GM-CSF (Leukine) with oncothermia (and radiotherapy)
Source text: A patient was diagnosed with unclassifiable non small cells lung cancer. The classification of the tumor at first diagnosis was cT2N2M0, stage IIIB. Despite of the advanced case the patient refused any treatment. Five months later, they visited outpatient department of complementary and alternative medicine with complaints of hemoptysis and dyspnea on exertion gradually worsened 4 weeks before. They were referred to medical oncology department and admitted for re-evaluation.
The patient had no co-morbidities and no medical history. However, they still refused chemotherapy and together with their family members requested other possible treatment options.
In these circumstances we made radiotherapy in combination with oncothermia and GM-CSF expecting to induce abscopal effect. Local field radiation therapy to lung mass was delivered at a dose of […] in 28 daily fractions for 5-6 treatments in a week. It was followed by oncothermia after radiation 3 times a week. After 2 weeks of oncothermia treatment, GM-CSF (250 microgram, Leukine®, USA) was administered subcutaneously once a day for 10 days. GM-CSF in dose 125 μg/m^2 was given subcutaneously for 14 days after one week of radiotherapy. The result supported that using GM-CSF was feasible and its effect enhanced the immune therapy.

Melanoma = conditions: phase III, 185 patients; cited from earlier work

Compound: N.N.O=C([O-])C1(C(=O)[O-])CCC1.[Pt+2] [Carboplatine]
- Tumor regression (CT image series) [1]: Significant tumor regression was observed not only at the site of the treatment, but outside of the directly OTM treated area

Compound: Leukine®: sargramostim; recombinant granulocyte macrophage colony-stimulating factor
- Response of far-distant metastases (abscopal effect, PET scan) [2]: beneficial effect also on the far-distances metastases, which disappear; also recorded: the metastases disappeared
- Response of far-distant metastases (abscopal effect, PET scan) ([2]; listed as GM-CSF): nearly complete remission in multiple metastatic lymph nodes; also recorded: successful abscopal effect
- Response of the primary (treated) tumor [2]: started to shrink
- Response of the primary (treated) tumor ([2]; listed as GM-CSF): shrinking
- Adverse effects ([2]; radiotherapy + oncothermia + GM-CSF, end of treatment period): no severe adverse effects except grade 1 fatigue

Compound: gp100:209-217(210M): listed under vaccines with peptides (IMDQVPFSV; UniProt P40967 209-217, looked up, variant T210M)
- RR and PES (Melanoma): Significant improve-

Reference: patent publication US10792483B2, “Tumor vaccination” (XAX KFT., priority 2012, dated 2020)
